The target in data set [1] is Casein kinase II subunit alpha' (Homo sapiens, UniProt P19784). Description: Inhibition of NLuc-fused CSNK2A2 (unknown origin) expressed in HEK293 cells incubated for 2 hrs by NanoBRET assay. The data set is classed as cell-based. (In general: BRET reads energy transfer from a luciferase to a nearby fluorophore.)
The next data set has as its system Murine hepatitis virus. Description: Antiviral activity against Murine hepatitis virus infected in mouse DBT cells preincubated with cells for 1 hrs followed by viral infection and measured after 10 hrs by luminometer. Format: functional, organism-based. To be noted: Murine coronavirus.
Data set [2] can be described thus: Kinetic solubility of compound in PBS at pH 7.4 incubated for 24 hrs by HPLC analysis. To be noted: buffer, pH 7.4, 24 h. The data set is classed as physicochemical.

In general, pIC50 refers to the IC50 on a negative log10 scale, so that one unit is a factor of ten. A lower pIC50 goes with a large IC50.

pIC50: −log10 of the molar value.

Casein kinase II subunit alpha', sequence (P19784 whole entry, the tested form may be a part): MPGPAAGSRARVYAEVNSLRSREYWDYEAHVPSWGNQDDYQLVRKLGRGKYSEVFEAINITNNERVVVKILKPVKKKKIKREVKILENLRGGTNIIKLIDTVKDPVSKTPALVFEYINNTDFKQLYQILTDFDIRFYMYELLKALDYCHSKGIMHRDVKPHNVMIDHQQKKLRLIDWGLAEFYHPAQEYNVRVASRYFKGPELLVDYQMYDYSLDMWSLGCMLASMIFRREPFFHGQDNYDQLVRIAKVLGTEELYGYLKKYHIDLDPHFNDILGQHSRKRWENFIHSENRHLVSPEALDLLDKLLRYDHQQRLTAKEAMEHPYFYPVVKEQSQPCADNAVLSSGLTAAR

On to `N#Cc1cnn2c(NC3CC3)cc(Nc3cccc(-n4ncnn4)c3)nc12`, for which the negative-log IC50 (pIC50) in data set [1] was 6.70; in the data set with Murine hepatitis virus it was under 5.00.
The like results for `N#Cc1cnn2c(NC3CC3)cc(Nc3cccc(-c4ccccn4)c3)nc12` were, in that order, 5.30 and under 5.00.
The compound `N#Cc1cnn2c(Nc3cn(CCN4CCCC4)cn3)cc(Nc3cccc(-n4cnnc4)c3)nc12` yielded a Kinetic_solubility in data set [2] of 37 µg/mL. Moreover, the figures for the pIC50 (in data set [1]; in the data set with Murine hepatitis virus) were 6.70 and under 5.00, respectively.
Regarding `N#Cc1cnn2c(NC3CC3)cc(Nc3cccc(C(=O)O)c3)nc12`, the pIC50 (in data set [1]; in the data set with Murine hepatitis virus) was under 5.00 in each case.
Consider `N#Cc1cnn2c(NCCO)cc(Nc3cccc(-n4cnnc4)c3)nc12`, for which the negative-log IC50 (pIC50) (in data set [1]; in the data set on Murine hepatitis virus) was under 5.00 in each case.
Take `N#Cc1cnn2c(NC3CC3)cc(Nc3cccc(Cn4cnnc4)c3)nc12`: the pIC50 in data set [1] was 5.40; in the data set on Murine hepatitis virus, under 5.00.
As for `CC(C)(O)Cc1cccc(Nc2cc(NC3CC3)n3ncc(C#N)c3n2)c1`, the negative-log IC50 (pIC50) in data set [1] was 6.40; with Murine hepatitis virus, 5.10.
`CN[C@H]1CCCN(c2ccc(Nc3cc(NC4CC4)n4ncc(C#N)c4n3)cc2-n2cnnc2)C1`: the Kinetic_solubility in data set [2] was 56 µg/mL. In addition, the pIC50 was 6.90 in data set [1] and 5.70 in the data set on Murine hepatitis virus.
`CS(=N)(=O)Cc1cccc(Nc2cc(NC3CC3)n3ncc(C#N)c3n2)c1` (centres undefined) had a pIC50 in the data set with Murine hepatitis virus of at most 5.00.
`N#Cc1cnn2c(NC3CC3)cc(Nc3cccc(-c4ncns4)c3)nc12`: the pIC50 in data set [1] was 7.30; in the data set with Murine hepatitis virus, under 5.00.
The compound `CNCCn1cnc(Nc2cc(Nc3cccc(-n4cnnc4)c3)nc3c(C#N)cnn23)c1` returned a Kinetic_solubility in data set [2] of 8.4 µg/mL. For the same compound, the values for the negative logarithm of the IC50 (pIC50) (in data set [1]; in the data set on Murine hepatitis virus) were 5.80 and under 5.00, respectively.
Turning to `N#Cc1cnn2c(NC3CC3)cc(Nc3cccc(-c4nnco4)c3)nc12`, the negative-log IC50 (pIC50) is 6.20 in data set [1] and 5.00 with Murine hepatitis virus.
The like results for `N#Cc1cnn2c(NC3CC3)cc(Nc3cccc(-n4cnnn4)c3)nc12` were, in that order, 8.30 and under 5.00.
`CCN(CCN)c1cc(F)c(Nc2cc(NC3CC3)n3ncc(C#N)c3n2)cc1-n1cnnc1`: in data set [2], the Kinetic_solubility turned out to be 39 µg/mL. The negative-log IC50 (pIC50) in data set [1] is 6.30; in the data set on Murine hepatitis virus it was 5.80.
Regarding `CN(CCN1CCCC1)c1ccc(Nc2cc(NC3CC3)n3ncc(C#N)c3n2)cc1-n1cnnc1`, the values for the negative logarithm of the IC50 (pIC50) (in data set [1]; with Murine hepatitis virus) were 7.30 and 5.00, respectively.
In data set [2], `N#Cc1cnn2c(Nc3ccn(CCN4CCOCC4)n3)cc(Nc3cccc(-n4cnnc4)c3)nc12` gave a Kinetic_solubility of 4 µg/mL. For the same compound, the results for the negative-log IC50 (pIC50) (in data set [1]; in the data set on Murine hepatitis virus) were 7.10 and 6.00, respectively.
Consider `N#Cc1cnn2c(NCC3CCOCC3)cc(Nc3cccc(-n4cnnc4)c3)nc12`, for which the pIC50 (in data set [1]; in the data set with Murine hepatitis virus) was under 5.00 in each case.
In data set [2], `CN(C)CCn1ccc(Nc2cc(Nc3cccc(-n4cnnc4)c3)nc3c(C#N)cnn23)n1` yielded a Kinetic_solubility of 21 µg/mL. The pIC50 in data set [1] was 7.50; with Murine hepatitis virus, 5.30.
Turning to `CC(=O)Nc1cccc(Nc2cc(NC3CC3)n3ncc(C#N)c3n2)c1`, in data set [2], the Kinetic_solubility was 2.8 µg/mL. This compound also had a negative-log IC50 (pIC50) with Murine hepatitis virus of 6.80.
For the compound `CN[C@@H]1CCCN(c2ccc(Nc3cc(NC4CC4)n4ncc(C#N)c4n3)cc2-n2cnnc2)C1`, in data set [2], the Kinetic_solubility came out at 63 µg/mL. Further, the negative-log IC50 (pIC50) in data set [1] is 6.10; in the data set on Murine hepatitis virus it was 5.50.
The like results for `N#Cc1cnn2c(NC3CC3)cc(Nc3cc(-n4cnnc4)c(N4CC[C@H](N)C4)cc3F)nc12` were, in that order, 37 µg/mL, 6.60 and 5.70.
As to `CP(C)(=O)Cc1cccc(Nc2cc(NC3CC3)n3ncc(C#N)c3n2)c1`, the negative-log IC50 (pIC50) in data set [1] is 6.20; in the data set with Murine hepatitis virus, 5.10.
Regarding `N#Cc1cnn2c(NC3COC3)cc(Nc3cccc(-n4cnnc4)c3)nc12`, the values for the negative logarithm of the IC50 (pIC50) (in data set [1]; in the data set with Murine hepatitis virus) were 6.60 and under 5.00, respectively.
The matching figures for `CS(=O)(=O)Cc1cccc(Nc2cc(NC3CC3)n3ncc(C#N)c3n2)c1`: 7.30 and 6.80.
For `CN1CCN(c2ccc(Nc3cc(NC4CC4)n4ncc(C#N)c4n3)cc2-n2cnnc2)CC1`, the Kinetic_solubility in data set [2] turned out to be 0.2 µg/mL. In addition, the pIC50 was 6.80 in data set [1] and 5.30 with Murine hepatitis virus.
Take `N#Cc1cnn2c(NC3CC3)cc(Nc3cccc(-c4cnccn4)c3)nc12`: the negative logarithm of the IC50 (pIC50) (in data set [1]; with Murine hepatitis virus) was under 5.00 in each case.
In data set [2], `N#Cc1cnn2c(Nc3cn(CCN4CCOCC4)cn3)cc(Nc3cccc(-n4cnnc4)c3)nc12` showed a Kinetic_solubility of 4.2 µg/mL. The pIC50 in data set [1] is 5.30; in the data set on Murine hepatitis virus, under 5.00.
As to `Cn1cc(CNc2cc(Nc3cccc(-n4cnnc4)c3)nc3c(C#N)cnn23)cn1`, the pIC50 (in data set [1]; in the data set with Murine hepatitis virus) was under 5.00 in each case.
Turning to `N#Cc1cnn2c(NCC3CCOC3)cc(Nc3cccc(-n4cnnc4)c3)nc12` (centres undefined), the pIC50 in data set [1] was under 5.00; in the data set with Murine hepatitis virus, 5.30.
The like results for `Cc1nncn1-c1cccc(Nc2cc(NC3CC3)n3ncc(C#N)c3n2)c1` were, in that order, 7.40 and 6.20.
The like results for `N#Cc1cnn2c(NC3CC3)cc(Nc3cccc(-c4nn[nH]n4)c3)nc12` were, in that order, under 5.00 and 5.60.
Turning to `Cc1nccn1-c1cccc(Nc2cc(NC3CC3)n3ncc(C#N)c3n2)c1`, the values for the negative-log IC50 (pIC50) (in data set [1]; in the data set with Murine hepatitis virus) were 7.50 and under 5.00, respectively.
In the case of `CN[C@@H]1CCCN(c2cc(F)c(Nc3cc(NC4CC4)n4ncc(C#N)c4n3)cc2-n2cnnc2)C1`, the figures for the pIC50 (in data set [1]; in the data set on Murine hepatitis virus) were 6.80 and 5.80, respectively.
The matching figures for `N#Cc1cnn2c(NC3CC3)cc(Nc3cccc(-c4nccs4)c3)nc12`: 6.10 and 5.60.
The compound `N#Cc1cnn2c(NC3CC3)cc(Nc3ccc(N4CCOCC4)c(-n4cnnc4)c3)nc12` had a Kinetic_solubility in data set [2] of 1.1 µg/mL. Further, the pIC50 in the data set on Murine hepatitis virus is 6.90.
Regarding `N#Cc1cnn2c(NC3CC3)cc(Nc3cccc(-n4ccnn4)c3)nc12`, the pIC50 in data set [1] was 6.30; in the data set with Murine hepatitis virus, 5.50.
Turning to `N#Cc1cnn2c(NC3CC3)cc(Nc3cccc(-n4cc[nH]c4=O)c3)nc12`, the pIC50 (in data set [1]; in the data set with Murine hepatitis virus) was under 5.00 each time.
For `N#Cc1cnn2c(NC3CC(F)(F)C3)cc(Nc3cccc(-n4cnnc4)c3)nc12`, the pIC50 in data set [1] is 6.40; in the data set on Murine hepatitis virus, under 5.00.
As for `C[S+]([O-])Cc1cccc(Nc2cc(NC3CC3)n3ncc(C#N)c3n2)c1` (centres undefined), the pIC50 is 7.40 in data set [1] and 6.40 in the data set with Murine hepatitis virus.
The matching figures for `CC(C)(C#N)c1cccc(Nc2cc(NC3CC3)n3ncc(C#N)c3n2)c1`: 6.10 and under 5.00.
The like results for `CCNCCN(C)c1ccc(Nc2cc(NC3CC3)n3ncc(C#N)c3n2)cc1-n1cnnc1` were, in that order, 6.20 and 5.10.
The like results for `Cn1cnnc1-c1cccc(Nc2cc(NC3CC3)n3ncc(C#N)c3n2)c1` were, in that order, under 5.00 and under 5.00.
On to `N#Cc1cnn2c(NC3CC3)cc(Nc3cccc(CCO)c3)nc12`, for which the negative-log IC50 (pIC50) in data set [1] is 6.20; in the data set on Murine hepatitis virus, 5.10.
For `CS(=O)(=O)Nc1cccc(Nc2cc(NC3CC3)n3ncc(C#N)c3n2)c1`, the pIC50 in data set [1] was 6.90; with Murine hepatitis virus it was 6.10.
Take `CC(=O)N1CCC(Nc2cc(Nc3cccc(-n4cnnc4)c3)nc3c(C#N)cnn23)CC1`: the negative-log IC50 (pIC50) (in data set [1]; in the data set with Murine hepatitis virus) was under 5.00 each time.

The record behind these values is ChEMBL document CHEMBL5500423, “More than an Amide Bioisostere: Discovery of 1,2,4-Triazole-containing Pyrazolo[1,5-a]pyrimidine Host CSNK2 Inhibitors for Combatting β-Coronavirus Replication” (J Med Chem, 2024).
